One compound from US20250002970A1, “A[…] LABELING FOR DETECTION OF BACTERIAL VIABILITY, GROWTH AND ANTIBIOTIC SUSCEPTIBILITY” (University of Massachusetts, priority 2021, published 2025) can be followed below.

The subject of the test is S. aureus. Nature of the test: Sandwich ELISA readout of growth-dependent metabolic labeling (biotin-D-lysine probe incorporation) +/- antibiotic. The format is cell-based, Staphylococcus aureus. The settings on record: S. aureus +/- vancomycin; FIG. 4. Here is the method: FIG. 4. ELISA can be used as a rapid readout for antibiotic susceptibility. S. aureus was incubated+/−antibiotic for 20 min then with cell envelope probe for an additional 10 min. Probe incorporation was quantitated by sandwich ELISA (absorbance, OD450).
Bacterial strains and growth conditions. Staphylococcus aureus was grown in brain heart infusion broth (BHI; BD BBL, Sparks, MD.). Escherichia coli K-12 was grown in Luria Bertani broth (LB; Apex Research Products, El Cajon, CA). All bacteria were initially grown by shaking at 37° C. overnight.
Cell wall labeling. Bacterial cultures were back diluted in their respective media and grown at 37° C. until the mid-log phase (OD600=0.3 for S. aureus; OD600=0.35 for E. coli); for concentration dependency experiments the starting OD600 for each sample varied. Where appropriate, cultures were treated with freshly prepared ampicillin (100 μg/mL; Fisher Bioreagents, Fair Lawn, NJ) or vancomycin (100 μg/mL; Alfa Aesar, Ward Hill, MA) and incubated on a shaker at 37° C. for 90 minutes.
Growing bacteria were labeled with biotin D-lysine (Chem-Impex International, Wood Dale, IL; reagent was deprotected first). Unless otherwise indicated, they were labeled with 1 mM biotin-D-lysine shaking at 37° C. for 20 (S. aureus) or 30 (E. coli) minutes. […]
ELISA experiment. […] The absorbance was measured at 450 nm with a BioTek Plate Reader.
In general terms: ELISA stands for enzyme-linked immunosorbent assay.

For the compound `CN[C@H](CC(C)C)C(=O)N[C@H]1C(=O)N[C@@H](CC(N)=O)C(=O)N[C@H]2C(=O)N[C@H]3C(=O)N[C@H](C(=O)N[C@H](C(=O)O)c4cc(O)cc(O)c4-c4cc3ccc4O)[C@H](O)c3ccc(c(Cl)c3)Oc3cc2cc(c3O[C@@H]2O[C@H](CO)[C@@H](O)[C@H](O)[C@H]2O[C@H]2C[C@](C)(N)[C@H](O)[C@H](C)O2)Oc2ccc(cc2Cl)[C@H]1O` [vancomycin], the “ELISA readout of probe incorporation (absorbance, OD450) with versus without antibiotic” value is reported as “can discriminate between S. aureus+/−vancomycin”.
